From paper PMC11537999, “Identification of human pregnane X receptor antagonists utilizing a high-throughput screening platform” (Frontiers in Pharmacology, 2024)

How the values were obtained:
[1] = molecular target: T1, hPXR (Homo sapiens, UniProt O75469); assay: Pharmacological inhibition (IC50 shift) assay with varying rifampicin in HepG2-CYP3A4-hPXR cells; type: cell-based; conditions: for shift in IC50 values with increasing rifampicin (in words): 5 μM, 7.5 µM or 10 µM rifampicin; for decrease in potency: co-treated with 2 µM versus 10 µM rifampicin; for IC50: triplicate
T1 construct: expressed in transfected cells; provided by Dr. Taosheng Chen, St. Jude
T1 sequence (O75469 1-434): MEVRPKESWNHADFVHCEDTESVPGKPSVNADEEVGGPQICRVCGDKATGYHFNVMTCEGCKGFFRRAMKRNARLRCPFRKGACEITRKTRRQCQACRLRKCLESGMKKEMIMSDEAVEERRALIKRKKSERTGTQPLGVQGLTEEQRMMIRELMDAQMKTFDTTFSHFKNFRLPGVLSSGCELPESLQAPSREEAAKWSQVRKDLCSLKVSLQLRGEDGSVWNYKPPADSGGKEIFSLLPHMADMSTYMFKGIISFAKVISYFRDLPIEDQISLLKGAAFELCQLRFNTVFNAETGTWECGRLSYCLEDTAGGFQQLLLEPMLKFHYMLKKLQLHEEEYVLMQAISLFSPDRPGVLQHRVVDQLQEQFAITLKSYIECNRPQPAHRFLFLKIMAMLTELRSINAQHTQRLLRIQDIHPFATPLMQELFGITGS
Method: HepG2-CYP3A4-hPXR cells were dispensed into tissue culture treated 1536-well white assay plates (Greiner Bio-One North America, Monroe, NC) using a Multidrop Combi (Thermo Fisher Scientific Inc., Waltham, Massachusetts) at 2,500 cells/4 µL/well. The cell suspension was prepared using new assay media, which contained phenol red-free DMEM (GIBCO), 5% charcoal/dextran-treated FBS (Invitrogen), 1 mM sodium pyruvate (Invitrogen), 2 mM L-Glutamine (Invitrogen), and 100 U/mL of Penicillin and 100 μg/mL of Streptomycin (Invitrogen). All plates were then incubated for 4 h in a 37°C and 5% CO2 incubator. […] In the primary screen, each compound was tested at 7 concentrations ranging from 46 μM to 1.5 nM. 1 μL of rifampicin, a known PXR agonist, was also co-treated in each well, generating a final concentration of 2 μM, using a Flying Reagent Dispenser (Aurora Discovery, Carlsbad, California). All assay plates were placed in an incubator at 37°C with 5% CO2 for 23 h. Following the incubation period, 1 µL of CellTiter-Fluor reagent (Promega, Madison, Wisconsin) was added to each well and all assay plates were placed back into the incubator set at 37°C and 5% CO2 for 1 h. Fluorescence intensity at 540 nm was measured following excitation at 405 nm using a ViewLux plate reader (Perkin Elmer, Shelton, Connecticut), in order to assess cell viability following treatment. Directly after the fluorescent read, 4 μL of ONE-Glo Luciferase reagent (Promega, Madison, Wisconsin) was added to each well using a Flying Reagent Dispenser, and plates were left to sit at room temperature for 30 min. The luminescence of each plate was then measured using the ViewLux plate reader and data were expressed as relative luminescence units. Gross assay performance was assessed by calculating quality metrics, such as coefficient of variance (CV), signal-to-background ratio (S/B), and Z′ factor, a measure of statistical effect size frequently used to judge whether an assay can be scaled up to a large high-throughput screen ([Zhang et al., 1999]).
Each curve was co-treated with 5 μM RIF, 7.5 μM RIF, or 10 μM RIF (a well-known PXR agonist) to determine pharmacological activity. […] Each curve was generated from a combination of all data points together.

[2] = tested on: CYP3A4 mRNA expression; assay: CYP3A4 mRNA expression by qRT-PCR in HepaRG cells treated with compound alone; type: cell-based, human; conditions: 24 h, compound at its IC70 concentration, vs DMSO
Method: Fully differentiated NoSpin™ HepaRG™ cells (Lonza, Walkersville, Maryland) were seeded into 12-well collagen-coated plates (Corning) at a density of 8 × 10^5 cells/well using Williams’ E medium (ThermoFisher) supplemented with HepaRG™ thawing and plating medium supplement (Lonza), 25 U/mL penicillin, and 25 μg/mL streptomycin (Invitrogen). The cells were then placed into a 37°C and 5% CO2 incubator for 3 days including a media change before treatment. Cells were then treated with the vehicle control (final concentration of 0.1% DMSO), the positive controls, or test compounds for 24 h before harvesting.
Total RNA was extracted from the cell lysate using an RNeasy Mini kit (Qiagen) according to the manufacturer’s instructions. RNA was reverse transcribed to cDNA using a High-Capacity RNA-to-cDNA kit (Applied Biosystems). CYP3A4 and CYP2B6 mRNA expression were both measured and normalized to the glyceraldehyde-3-phosphate dehydrogenase (GAPDH) housekeeping gene. Real-time PCR was completed using a QuantStudio Real-Time PCR system (Applied Biosystems) with TaqMan probes (CYP3A4 Assay ID: Hs00604506_m1, CYP2B6 Assay ID: Hs04183483_g1, GAPDH Assay ID: Hs99999905_m1, ThermoFisher Scientific, Waltham, MA). Following amplification, induction values were calculated using the equation: Fold = 2^−ΔΔCt, where ΔCt represents the difference in number of cycles required to reach the Ct threshold between CYP3A4 or CYP2B6 and GAPDH, and ΔΔCt represents the relative change in these differences between the control (DMSO) and treatment groups. Experimental data are expressed as a mean of triplicate values ±SD. Statistical analysis was performed using one-way analysis of variance with post hoc Dunnett’s analysis. The statistical significance values were set at p < 0.05 (*), p < 0.01 (**), and p < 0.001 (***).
To overcome the previous screening limitations, we used this more physiologically relevant cell line, HepaRG cells, to run follow-up studies with the PXR antagonists identified from the primary screen which used immortalized cell lines without a metabolic component. Using HepaRG cells, the 20 potential PXR antagonists were treated for 24 h and harvested for mRNA (Supplementary Figure S1).
FIGURE 3 HepaRG cells were treated with the top 20 most promising PXR antagonists identified from the high-throughput screen. […] The concentrations for the test compounds were the IC70 values from the original NPACT screen. Real-time PCR was used to analyze the mRNA expression of CYP3A4. Each bar represents the mean ± SD in triplicate. *, p < 0.05; **, p < 0.01.

Row | shift in IC50 values with increasing rifampicin (in words) [1] | decrease in potency [1] | IC50 ([1]; co-treated with 5 μM RIF) [µM] | IC50 ([1]; co-treated with 7.5 μM RIF) [µM] | IC50 ([1]; co-treated with 10 μM RIF) [µM] | Structure (SMILES) | inhibition of CYP3A4 mRNA expression (in words) [2]
1 | generated a shift in IC50 values | more than 2 fold | 1.6 | 3.32 | 5.46 | COc1cc(-c2cn(C3CCc4c(F)cccc4N(CC(F)(F)F)C3=O)nn2)ccc1-n1cnc(C)c1 (stereo not drawn) [GSM2] | significantly inhibited CYP3A4 mRNA expression
2 | generated a shift in IC50 values | more than 2 fold | 3.46 | 4.57 | 7.76 | CC(=O)O[C@H]1C[C@@]2(C)[C@@H](C[C@@H](O)[C@H]3[C@@]4(C)CC[C@@H](O)[C@@H](C)[C@@H]4CC[C@@]32C)/C1=C(\CCC=C(C)C)C(=O)O [fusidic acid] | significantly inhibited CYP3A4 mRNA expression
